Measurements published in the supplement of paper PMC4862054.

The molecules below were run on HCC1143 (assay: normalised viability (% of control), CellTiter-Blue; higher = more viable cells (about 100 = DMSO control)). Details: 10 nM; incubation time: 72 h.
How it was run: (§1)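 Seeded at 20 µl suspension per well onto compound-loaded 384-well plates, breast cancer cell lines were incubated 72 h. CellTiter-Blue fluorescence at 560/590 nm was then read, with each plate normalised to vehicle (100) and a positive kill control (0). Normalised viability is reported at a single listed concentration of the series.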
`O=NN(CCCl)C(=O)NC1CCCCC1` [Lomustine] was tested, and the normalised viability was 89.3%.

Same assay, conditions: 100 nM; incubation time: 72 h
In the case of `COc1cc2c(Oc3ccc(NC(=O)C4(C(=O)Nc5ccc(F)cc5)CC4)cc3F)ccnc2cc1OCCCN1CCOCC1` [Foretinib], the normalised viability is reported as 103%. In the case of `NC(=O)NO` [Hydroxyurea], the normalised viability is reported as 99.1%. In the case of `O=C(O)CC[C@H]1CC[C@@](c2cc(F)ccc2F)(S(=O)(=O)c2ccc(Cl)cc2)CC1` [MK-0752], the normalised viability is reported as 108%.

Same assay, conditions: 1000 nM; incubation time: 72 h
For `Nc1nc(Cl)nc2c1ncn2[C@@H]1O[C@H](CO)[C@@H](O)[C@@H]1F` [Clofarabine], the normalised viability was 52.4%. In the case of `CCN(CC)CCOc1ccc(C(=C(Cl)c2ccccc2)c2ccccc2)cc1` [Clomifene], the normalised viability is reported as 84%. In the case of `C[C@@H]1C[C@H]2[C@@H]3CCC4=CC(=O)C=C[C@]4(C)[C@@]3(F)[C@@H](O)C[C@]2(C)[C@@]1(O)C(=O)CO` [Dexamethasone], the normalised viability is reported as 89.1%. In the case of `CC(C)C(=O)Nc1ccc([N+](=O)[O-])c(C(F)(F)F)c1` [Flutamide], the normalised viability is reported as 86.3%. With `COc1cc2c(Oc3ccc(NC(=O)C4(C(=O)Nc5ccc(F)cc5)CC4)cc3F)ccnc2cc1OCCCN1CCOCC1` [Foretinib] the normalised viability was 82.8%. `O=NN(CCCl)C(=O)NC1CCCCC1` [Lomustine] showed a normalised viability of 90.5%. `O=C(O)CC[C@H]1CC[C@@](c2cc(F)ccc2F)(S(=O)(=O)c2ccc(Cl)cc2)CC1` [MK-0752] showed a normalised viability of 89.4%.

Same assay, conditions: 10000 nM; incubation time: 72 h
`Nc1nc(Cl)nc2c1ncn2[C@@H]1O[C@H](CO)[C@@H](O)[C@@H]1F` [Clofarabine] gave a normalised viability of 45%. `CCN(CC)CCOc1ccc(C(=C(Cl)c2ccccc2)c2ccccc2)cc1` [Clomifene] was tested, and the normalised viability was 85.2%. `C[C@@H]1C[C@H]2[C@@H]3CCC4=CC(=O)C=C[C@]4(C)[C@@]3(F)[C@@H](O)C[C@]2(C)[C@@]1(O)C(=O)CO` [Dexamethasone] showed a normalised viability of 81.2%. `CC(C)C(=O)Nc1ccc([N+](=O)[O-])c(C(F)(F)F)c1` [Flutamide] was tested, and the normalised viability was 82.5%. With `NC(=O)NO` [Hydroxyurea] the normalised viability was 99.3%. For `O=NN(CCCl)C(=O)NC1CCCCC1` [Lomustine], the normalised viability was 89.5%.

Same assay, conditions: 100000 nM; incubation time: 72 h
`NC(=O)NO` [Hydroxyurea] gave a normalised viability of 92.4%.

Each molecule was assayed on HCC1599 in the same assay as above. Details: 1 nM; incubation time: 72 h.
How it was run: as §1
Work on `COc1cc2c(Oc3ccc(NC(=O)C4(C(=O)Nc5ccc(F)cc5)CC4)cc3F)ccnc2cc1OCCCN1CCOCC1` [Foretinib] yielded a normalised viability of 77.2%. With `O=C(O)CC[C@H]1CC[C@@](c2cc(F)ccc2F)(S(=O)(=O)c2ccc(Cl)cc2)CC1` [MK-0752] the normalised viability was 98.2%.

Same assay, conditions: 10 nM; incubation time: 72 h
Work on `Nc1nc(Cl)nc2c1ncn2[C@@H]1O[C@H](CO)[C@@H](O)[C@@H]1F` [Clofarabine] yielded a normalised viability of 106%. For `CCN(CC)CCOc1ccc(C(=C(Cl)c2ccccc2)c2ccccc2)cc1` [Clomifene], the normalised viability was 93.8%. Molecule `C[C@@H]1C[C@H]2[C@@H]3CCC4=CC(=O)C=C[C@]4(C)[C@@]3(F)[C@@H](O)C[C@]2(C)[C@@]1(O)C(=O)CO` [Dexamethasone] has a normalised viability of 124%. `CC(C)C(=O)Nc1ccc([N+](=O)[O-])c(C(F)(F)F)c1` [Flutamide] showed a normalised viability of 105%. Molecule `O=NN(CCCl)C(=O)NC1CCCCC1` [Lomustine] has a normalised viability of 108%.

Same assay, conditions: 100 nM; incubation time: 72 h
Work on `COc1cc2c(Oc3ccc(NC(=O)C4(C(=O)Nc5ccc(F)cc5)CC4)cc3F)ccnc2cc1OCCCN1CCOCC1` [Foretinib] yielded a normalised viability of 89.9%. For `NC(=O)NO` [Hydroxyurea], the normalised viability was 107%. `O=C(O)CC[C@H]1CC[C@@](c2cc(F)ccc2F)(S(=O)(=O)c2ccc(Cl)cc2)CC1` [MK-0752] gave a normalised viability of 81.8%.

Same assay, conditions: 1000 nM; incubation time: 72 h
For `Nc1nc(Cl)nc2c1ncn2[C@@H]1O[C@H](CO)[C@@H](O)[C@@H]1F` [Clofarabine], the normalised viability was 87.5%. In the case of `CCN(CC)CCOc1ccc(C(=C(Cl)c2ccccc2)c2ccccc2)cc1` [Clomifene], the normalised viability is reported as 106%. Molecule `C[C@@H]1C[C@H]2[C@@H]3CCC4=CC(=O)C=C[C@]4(C)[C@@]3(F)[C@@H](O)C[C@]2(C)[C@@]1(O)C(=O)CO` [Dexamethasone] has a normalised viability of 82.1%. In the case of `CC(C)C(=O)Nc1ccc([N+](=O)[O-])c(C(F)(F)F)c1` [Flutamide], the normalised viability is reported as 114%. With `COc1cc2c(Oc3ccc(NC(=O)C4(C(=O)Nc5ccc(F)cc5)CC4)cc3F)ccnc2cc1OCCCN1CCOCC1` [Foretinib] the normalised viability was 72.6%. Work on `O=NN(CCCl)C(=O)NC1CCCCC1` [Lomustine] yielded a normalised viability of 81.4%. Work on `O=C(O)CC[C@H]1CC[C@@](c2cc(F)ccc2F)(S(=O)(=O)c2ccc(Cl)cc2)CC1` [MK-0752] yielded a normalised viability of 74.7%.

Same assay, conditions: 10000 nM; incubation time: 72 h
In the case of `Nc1nc(Cl)nc2c1ncn2[C@@H]1O[C@H](CO)[C@@H](O)[C@@H]1F` [Clofarabine], the normalised viability is reported as 71.6%. With `CCN(CC)CCOc1ccc(C(=C(Cl)c2ccccc2)c2ccccc2)cc1` [Clomifene] the normalised viability was 68.1%. In the case of `C[C@@H]1C[C@H]2[C@@H]3CCC4=CC(=O)C=C[C@]4(C)[C@@]3(F)[C@@H](O)C[C@]2(C)[C@@]1(O)C(=O)CO` [Dexamethasone], the normalised viability is reported as 86.7%. `CC(C)C(=O)Nc1ccc([N+](=O)[O-])c(C(F)(F)F)c1` [Flutamide] showed a normalised viability of 118%. `NC(=O)NO` [Hydroxyurea] was tested, and the normalised viability was 87.4%. `O=NN(CCCl)C(=O)NC1CCCCC1` [Lomustine] was tested, and the normalised viability was 117%.

Same assay, conditions: 100000 nM; incubation time: 72 h
In the case of `NC(=O)NO` [Hydroxyurea], the normalised viability is reported as 95.9%.

The molecules below were run on HCC1937 in the same assay as above. Details: 1 nM; incubation time: 72 h.
How it was run: as §1
For `COc1cc2c(Oc3ccc(NC(=O)C4(C(=O)Nc5ccc(F)cc5)CC4)cc3F)ccnc2cc1OCCCN1CCOCC1` [Foretinib], the normalised viability was 80.8%. `O=C(O)CC[C@H]1CC[C@@](c2cc(F)ccc2F)(S(=O)(=O)c2ccc(Cl)cc2)CC1` [MK-0752] was tested, and the normalised viability was 96%.

Same assay, conditions: 10 nM; incubation time: 72 h
For `Nc1nc(Cl)nc2c1ncn2[C@@H]1O[C@H](CO)[C@@H](O)[C@@H]1F` [Clofarabine], the normalised viability was 92.6%. `CCN(CC)CCOc1ccc(C(=C(Cl)c2ccccc2)c2ccccc2)cc1` [Clomifene] gave a normalised viability of 115%. For `C[C@@H]1C[C@H]2[C@@H]3CCC4=CC(=O)C=C[C@]4(C)[C@@]3(F)[C@@H](O)C[C@]2(C)[C@@]1(O)C(=O)CO` [Dexamethasone], the normalised viability was 82.5%. `CC(C)C(=O)Nc1ccc([N+](=O)[O-])c(C(F)(F)F)c1` [Flutamide] was tested, and the normalised viability was 96.9%. Work on `O=NN(CCCl)C(=O)NC1CCCCC1` [Lomustine] yielded a normalised viability of 92%.

Same assay, conditions: 100 nM; incubation time: 72 h
`COc1cc2c(Oc3ccc(NC(=O)C4(C(=O)Nc5ccc(F)cc5)CC4)cc3F)ccnc2cc1OCCCN1CCOCC1` [Foretinib] was tested, and the normalised viability was 91.3%. `NC(=O)NO` [Hydroxyurea] was tested, and the normalised viability was 86.9%. For `O=C(O)CC[C@H]1CC[C@@](c2cc(F)ccc2F)(S(=O)(=O)c2ccc(Cl)cc2)CC1` [MK-0752], the normalised viability was 86.9%.

Same assay, conditions: 1000 nM; incubation time: 72 h
`Nc1nc(Cl)nc2c1ncn2[C@@H]1O[C@H](CO)[C@@H](O)[C@@H]1F` [Clofarabine] showed a normalised viability of 28.9%. Molecule `CCN(CC)CCOc1ccc(C(=C(Cl)c2ccccc2)c2ccccc2)cc1` [Clomifene] has a normalised viability of 117%. Work on `C[C@@H]1C[C@H]2[C@@H]3CCC4=CC(=O)C=C[C@]4(C)[C@@]3(F)[C@@H](O)C[C@]2(C)[C@@]1(O)C(=O)CO` [Dexamethasone] yielded a normalised viability of 100%. For `CC(C)C(=O)Nc1ccc([N+](=O)[O-])c(C(F)(F)F)c1` [Flutamide], the normalised viability was 84.2%. With `COc1cc2c(Oc3ccc(NC(=O)C4(C(=O)Nc5ccc(F)cc5)CC4)cc3F)ccnc2cc1OCCCN1CCOCC1` [Foretinib] the normalised viability was 64.9%. Molecule `O=NN(CCCl)C(=O)NC1CCCCC1` [Lomustine] has a normalised viability of 90.4%.
